Tested on: MCF-7 cells (breast adenocarcinoma)
Experiment: cells
Type: cell-based
Conditions: Homo sapiens, MCF7; MTT, 72 h, 0.01–50 µM, dark conditions
Procedure: The cytotoxic effects of the aminosquaraines 1–8 were evaluated in breast (MCF-7 and T47D) and prostate (LNCaP) cancer cell lines using the MTT assay, as previously described [17]. […] Normal human dermal fibroblasts (NHDF) were included as a non-cancer model to assess tumor selectivity.
In a preliminary screening, cells were exposed to a single concentration (30 µM) of each dye for 72 h to assess metabolic activity.
The studied compounds were dissolved in dimethyl sulfoxide to prepare 10 mM stock solutions and stored at 4 °C. Working solutions were prepared from these stocks at the desired concentrations (30 µM for preliminary studies and 0.01, 0.1, 1, 10, 25, and 50 µM for concentration–response studies) by dilution in complete culture medium immediately before each experiment.
Metabolic activity was assessed by quantifying the reduction of 3-(4,5-dimethylthiazol-2-yl)-2,5-diphenyltetrazolium bromide (MTT), according to a previously described procedure [17]. […] Absorbance was recorded at 570 nm using an xMark™ microplate reader (Bio-Rad, Hercules, CA, USA) using Microplate Manager 6.3 software. Cell viability was calculated as a percentage relative to untreated control cells.
Selectivity indices were determined as the ratio between IC50 values obtained in the NHDF cell line and those obtained in the corresponding tumor cell lines.

## O=c1[nH]cc(F)c(=O)[nH]1 [5-FU, 5-fluorouracil]
  IC50: 1.71 µM
